Data reported in patent US20260053834A1, “COVALENT MODIFIERS OF AKT1 AND USES THEREOF” (Terremoto Biosciences, Inc., priority 2023, published 2026).

Legend:
AKT1 E17K = molecular target: T1, AKT1 E17K (Homo sapiens, UniProt P31749, E17K); assay: Live cell target engagement by NanoBRET competitive probe displacement, AKT1 E17K; type: binding; details: transfected HEK293 cells, 2 h at 37° C., read-out: AKT1 E17K IC50: GeoMean IC50
T1 construct: expressed in transfected cells; host or cells: HEK293
T1 sequence (P31749 whole entry E17K): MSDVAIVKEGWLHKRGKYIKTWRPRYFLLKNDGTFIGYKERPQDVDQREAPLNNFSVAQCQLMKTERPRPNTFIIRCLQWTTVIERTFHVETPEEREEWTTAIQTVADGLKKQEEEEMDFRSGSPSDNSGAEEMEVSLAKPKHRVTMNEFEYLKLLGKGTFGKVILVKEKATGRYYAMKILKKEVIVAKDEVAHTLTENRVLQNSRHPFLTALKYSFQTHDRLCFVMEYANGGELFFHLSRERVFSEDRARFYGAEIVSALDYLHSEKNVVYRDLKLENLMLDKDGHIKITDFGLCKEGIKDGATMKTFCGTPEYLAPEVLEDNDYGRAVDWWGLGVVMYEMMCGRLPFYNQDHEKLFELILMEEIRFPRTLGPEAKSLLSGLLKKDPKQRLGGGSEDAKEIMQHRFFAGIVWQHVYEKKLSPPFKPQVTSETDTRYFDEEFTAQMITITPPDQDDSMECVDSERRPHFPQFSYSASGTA

[1] = system: LAPC4 prostate cancer cells, which express the AKT1 E17K allele; assay: Antiproliferative effects in LAPC4 cells (CellTiter Glo, 72 h); type: cell-based; details: Homo sapiens, LAPC4, 72 h, read-out: LAPC4 proliferation IC50: GeoMean IC50
Outline: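 IC50 values come from Hill-equation fitting of luminescence (cellular ATP) after 72 h compound exposure. Treated wells held 1,000 cells each, with compound delivered as DMSO dilutions. Culture medium was IMDM plus 12% FBS.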

AKT2 = molecular target: T2, AKT2 (Homo sapiens, UniProt P31751); assay: Live cell target engagement by NanoBRET competitive probe displacement, AKT2; type: binding; details: transfected HEK293 cells, 2 h at 37° C., read-out: AKT2 IC50: GeoMean IC50
T2 construct: expressed in transfected cells; host or cells: HEK293
T2 sequence (P31751 whole entry): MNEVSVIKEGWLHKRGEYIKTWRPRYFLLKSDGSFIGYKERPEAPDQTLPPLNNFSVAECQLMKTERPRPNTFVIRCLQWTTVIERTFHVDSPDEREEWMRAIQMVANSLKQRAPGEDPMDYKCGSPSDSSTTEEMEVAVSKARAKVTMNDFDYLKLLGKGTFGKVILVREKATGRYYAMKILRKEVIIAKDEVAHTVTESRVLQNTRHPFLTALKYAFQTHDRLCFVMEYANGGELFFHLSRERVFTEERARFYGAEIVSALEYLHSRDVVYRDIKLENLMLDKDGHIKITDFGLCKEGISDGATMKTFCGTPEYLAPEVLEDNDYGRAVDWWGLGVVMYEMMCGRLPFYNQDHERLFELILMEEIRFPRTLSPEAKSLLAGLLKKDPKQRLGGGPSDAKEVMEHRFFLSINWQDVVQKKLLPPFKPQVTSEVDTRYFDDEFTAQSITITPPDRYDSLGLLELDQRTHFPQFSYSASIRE

AKT1 WT = molecular target: T3, AKT1 WT (Homo sapiens, UniProt P31749); assay: Live cell target engagement by NanoBRET competitive probe displacement, AKT1 WT; type: binding; details: transfected HEK293 cells, 2 h at 37° C., read-out: AKT1 WT IC50: GeoMean IC50
T3 construct: expressed in transfected cells; host or cells: HEK293
T3 sequence (P31749 whole entry): as the sequence (P31749 whole entry E17K) above, with K17E counted along it

For Nc1ncccc1-c1nc2ccc(-n3ccc(F)n3)nc2n1-c1ccc2c(c1)CC[C@@H]2NC(=O)c1cc(C=O)c(O)cc1F [Example 135, N-[(1S)-5-[2-(2-aminopyridin-3-yl)-5-(3-fluoropyrazol-1-yl)imidazo[4,5-b]pyridin-3-yl]-2,3-dihydro-1H-inden-1-yl]-2-fluoro-5-formyl-4-hydroxybenzamide], the IC50 (AKT1 E17K) was 10 to 100 nM, the IC50 [1] was 10 to 100 nM and the IC50 (AKT2) was 100 to 2000 nM. It also gave an IC50 (AKT1 WT) of 10 to 100 nM.
CN(C)C(=O)Nc1ccc(C(=O)N[C@H]2CCc3cc(-n4c(-c5cccnc5N)nc5ccc(-c6ccccc6)nc54)ccc32)cc1C=O [Example 63, (S)—N-(5-(2-(2-aminopyridin-3-yl)-5-phenyl-3H-imidazo[4,5-b]pyridin-3-yl)-2,3-dihydro-1H-inden-1-yl)-4-(3,3-dimethylureido)-3-formylbenzamide] was tested, and the IC50 (AKT1 E17K) was less than 10 nM, the IC50 [1] was less than 10 nM and the IC50 (AKT2) was 10 to 100 nM. The IC50 (AKT1 WT) was less than 10 nM.
Work on Nc1ncccc1-c1nc2ccc(-n3cccn3)nc2n1-c1ccc2c(c1)CC(F)[C@@H]2NC(=O)c1cc(C=O)c(O)cc1F (single isomer, unassigned) [Example 258, N-((1R,2R*)-5-(2-(2-aminopyridin-3-yl)-5-(1H-pyrazol-1-yl)-3H-imidazo[4,5-b]pyridin-3-yl)-2-fluoro-2,3-dihydro-1H-inden-1-yl)-2-fluoro-5-formyl-4-hydroxybenzamide] yielded an IC50 (AKT1 E17K) of less than 10 nM, an IC50 [1] of 10 to 100 nM and an IC50 (AKT2) of 10 to 100 nM. The IC50 (AKT1 WT) was 10 to 100 nM.
N#Cc1cnn(-c2ccc3nc(-c4cccnc4N)n(-c4ccc5c(c4)CC[C@@H]5NC(=O)c4ccc(O)c(C=O)c4)c3n2)c1 [Example 90, N-[(1S)-5-[2-(2-aminopyridin-3-yl)-5-(4-cyanopyrazol-1-yl)imidazo[4,5-b]pyridin-3-yl]-2,3-dihydro-1H-inden-1-yl]-3-formyl-4-hydroxybenzamide] was tested, and the IC50 (AKT1 E17K) was 10 to 100 nM, the IC50 [1] was 100 to 2000 nM and the IC50 (AKT2) was 100 to 2000 nM. For the same compound, the IC50 (AKT1 WT) was 100 to 2000 nM.
Work on Nc1ncccc1-c1nc2c(F)cc(-n3cccn3)nc2n1-c1ccc2c(c1)CC[C@@H]2NC(=O)c1ccc(O)c(C=O)c1 [Example 213, N-[(1S)-5-[2-(2-aminopyridin-3-yl)-7-fluoro-5-(pyrazol-1-yl)imidazo[4,5-b]pyridin-3-yl]-2,3-dihydro-1H-inden-1-yl]-3-formyl-4-hydroxybenzamide] yielded an IC50 (AKT1 E17K) of 10 to 100 nM, an IC50 [1] of 100 to 2000 nM and an IC50 (AKT2) of 100 to 2000 nM. It also gave an IC50 (AKT1 WT) of 10 to 100 nM.
Work on Cc1cc(C)c2nc(-c3cccnc3N)n(-c3ccc4c(c3)CC[C@@H]4NC(=O)c3ccc(O)c(C=O)c3)c2n1 [Example 69, N-[(1S)-5-[2-(2-aminopyridin-3-yl)-5,7-dimethylimidazo[4,5-b]pyridin-3-yl]-2,3-dihydro-1H-inden-1-yl]-3-formyl-4-hydroxybenzamide] yielded an IC50 (AKT1 E17K) of 10 to 100 nM, an IC50 [1] of 100 to 2000 nM and an IC50 (AKT2) of no less than 2000 nM. It also gave an IC50 (AKT1 WT) of 100 to 2000 nM.
Work on Nc1ncccc1-c1nc2ccc(-n3cc4c(n3)CNC4)nc2n1-c1ccc2c(c1)CC[C@@H]2NC(=O)c1ccc(O)c(C=O)c1 [Example 160, N-[(1S)-5-[2-(2-aminopyridin-3-yl)-5-{4H,5H,6H-pyrrolo[3,4-c]pyrazol-2-yl}imidazo[4,5-b]pyridin-3-yl]-2,3-dihydro-1H-inden-1-yl]-3-formyl-4-hydroxybenzamide] yielded an IC50 (AKT1 E17K) of 100 to 2000 nM, an IC50 [1] of no less than 2000 nM and an IC50 (AKT2) of 100 to 2000 nM. For the same compound, the IC50 (AKT1 WT) was 100 to 2000 nM.
For Nc1ncccc1-c1nc2ccc(-n3cccn3)nc2n1-c1ccc2c(c1)CC[C@@H]2NC(=O)c1cc(Cl)c(O)c(C=O)c1 [Example 93, N-[(1S)-5-[2-(2-aminopyridin-3-yl)-5-(pyrazol-1-yl)imidazo[4,5-b]pyridin-3-yl]-2,3-dihydro-1H-inden-1-yl]-3-chloro-5-formyl-4-hydroxybenzamide], the IC50 (AKT1 E17K) was 10 to 100 nM, the IC50 [1] was 100 to 2000 nM and the IC50 (AKT2) was 100 to 2000 nM. The IC50 (AKT1 WT) was 10 to 100 nM.
For Nc1ncccc1-c1nc2ccc(-c3nc(C(F)F)cs3)nc2n1-c1ccc2c(c1)CC[C@@H]2NC(=O)c1ccc(O)c(C=O)c1 [Example 147, N-[(1S)-5-[2-(2-aminopyridin-3-yl)-5-[4-(difluoromethyl)-1,3-thiazol-2-yl]imidazo[4,5-b]pyridin-3-yl]-2,3-dihydro-1H-inden-1-yl]-3-formyl-4-hydroxybenzamide], the IC50 (AKT1 E17K) was 10 to 100 nM, the IC50 [1] was 10 to 100 nM and the IC50 (AKT2) was 100 to 2000 nM. The IC50 (AKT1 WT) was 10 to 100 nM.
In the case of COc1cc(C(=O)N[C@H]2CCc3cc(-n4c(-c5cccnc5N)nc5ccc(-c6ccccc6)nc54)ccc32)cc(C=O)c1O [Example 36, N-[(1S)-5-[2-(2-aminopyridin-3-yl)-5-phenylimidazo[4,5-b]pyridin-3-yl]-2,3-dihydro-1H-inden-1-yl]-3-formyl-4-hydroxy-5-methoxybenzamide], the IC50 (AKT1 E17K) is reported as 10 to 100 nM, the IC50 [1] is reported as 100 to 2000 nM and the IC50 (AKT2) is reported as 100 to 2000 nM. It also gave an IC50 (AKT1 WT) of 10 to 100 nM.
In the case of Nc1ncccc1-c1nc2ccc(-c3ccccc3)nc2n1-c1ccc2c(c1)CC[C@@H]2NC(=O)c1ccc(O)c(C=O)n1 [Example 89, (S)—N-(5-(2-(2-aminopyridin-3-yl)-5-phenyl-3H-imidazo[4,5-b]pyridin-3-yl)-2,3-dihydro-1H-inden-1-yl)-6-formyl-5-hydroxypicolinamide], the IC50 (AKT1 E17K) is reported as 100 to 2000 nM, the IC50 [1] is reported as 100 to 2000 nM and the IC50 (AKT2) is reported as 100 to 2000 nM. The IC50 (AKT1 WT) was 10 to 100 nM.
Cc1ccc2nc(-c3cccnc3N)n(-c3ccc4c(c3)CC[C@@H]4NC(=O)c3cc(F)c(O)c(C=O)c3)c2n1 [Example 44, (S)—N-(5-(2-(2-aminopyridin-3-yl)-5-methyl-3H-imidazo[4,5-b]pyridin-3-yl)-2,3-dihydro-1H-inden-1-yl)-3-fluoro-5-formyl-4-hydroxybenzamide] showed an IC50 (AKT1 E17K) of 100 to 2000 nM, an IC50 [1] of 100 to 2000 nM and an IC50 (AKT2) of no less than 2000 nM. For the same compound, the IC50 (AKT1 WT) was 100 to 2000 nM.
Compound Nc1ncccc1-c1nc2ccc(-c3cnn(C(F)F)c3)nc2n1-c1ccc2c(c1)CC[C@@H]2NC(=O)c1ccc(O)c(C=O)c1 [Example 61, N-[(1S)-5-[2-(2-aminopyridin-3-yl)-5-[1-(difluoromethyl)pyrazol-4-yl]imidazo[4,5-b]pyridin-3-yl]-2,3-dihydro-1H-inden-1-yl]-3-formyl-4-hydroxybenzamide] has an IC50 (AKT1 E17K) of 10 to 100 nM, an IC50 [1] of 10 to 100 nM and an IC50 (AKT2) of 100 to 2000 nM. For the same compound, the IC50 (AKT1 WT) was 10 to 100 nM.
Cc1cnc(-c2ccc3nc(-c4cccnc4N)n(-c4ccc5c(c4)CC[C@@H]5NC(=O)c4cc(C=O)c(O)cc4F)c3n2)s1 [Example 185, N-[(1S)-5-[2-(2-aminopyridin-3-yl)-5-(5-methyl-1,3-thiazol-2-yl)imidazo[4,5-b]pyridin-3-yl]-2,3-dihydro-1H-inden-1-yl]-2-fluoro-5-formyl-4-hydroxybenzamide] gave an IC50 (AKT1 E17K) of 10 to 100 nM, an IC50 [1] of 10 to 100 nM and an IC50 (AKT2) of 100 to 2000 nM. It also gave an IC50 (AKT1 WT) of 10 to 100 nM.
In the case of CN1CCN(c2cc(-n3cccn3)nc3c2nc(-c2cccnc2N)n3-c2ccc3c(c2)CC[C@@H]3NC(=O)c2ccc(O)c(C=O)c2)CC1 [Example 223, N-[(1S)-5-[2-(2-aminopyridin-3-yl)-7-(4-methylpiperazin-1-yl)-5-(pyrazol-1-yl)imidazo[4,5-b]pyridin-3-yl]-2,3-dihydro-1H-inden-1-yl]-3-formyl-4-hydroxybenzamide], the IC50 (AKT1 E17K) is reported as 10 to 100 nM, the IC50 [1] is reported as 100 to 2000 nM and the IC50 (AKT2) is reported as 100 to 2000 nM. It also gave an IC50 (AKT1 WT) of 100 to 2000 nM.
Cc1cnc(-c2ccc3nc(-c4cccnc4N)n(-c4ccc5c(c4)CC[C@@H]5NC(=O)c4cc(C=O)c(O)c(F)c4F)c3n2)s1 [Example 186, N-[(1S)-5-[2-(2-aminopyridin-3-yl)-5-(5-methyl-1,3-thiazol-2-yl)imidazo[4,5-b]pyridin-3-yl]-2,3-dihydro-1H-inden-1-yl]-2,3-difluoro-5-formyl-4-hydroxybenzamide] showed an IC50 (AKT1 E17K) of 10 to 100 nM, an IC50 [1] of 10 to 100 nM and an IC50 (AKT2) of 100 to 2000 nM. It also gave an IC50 (AKT1 WT) of 10 to 100 nM.
Work on Nc1ncccc1-c1nc2ccc(-c3ccc(F)cc3)nc2n1-c1ccc2c(c1)CC[C@@H]2NC(=O)c1ccc(O)c(C=O)c1 [Example 20, (S)—N-(5-(2-(2-aminopyridin-3-yl)-5-(4-fluorophenyl)-3H-imidazo[4,5-b]pyridin-3-yl)-2,3-dihydro-1H-inden-1-yl)-3-formyl-4-hydroxybenzamide] yielded an IC50 (AKT1 E17K) of 10 to 100 nM, an IC50 [1] of 10 to 100 nM and an IC50 (AKT2) of 100 to 2000 nM. The IC50 (AKT1 WT) was 10 to 100 nM.
Nc1ncccc1-c1nc2ccc(-c3ccccc3)nc2n1-c1ccc2c(c1)CC[C@@H]2NC(=O)c1ccc(NC(=O)N2CCOCC2)c(C=O)c1 [Example 68, N-(4-{[(1S)-5-[2-(2-aminopyridin-3-yl)-5-phenylimidazo[4,5-b]pyridin-3-yl]-2,3-dihydro-1H-inden-1-yl]carbamoyl}-2-formylphenyl)morpholine-4-carboxamide] showed an IC50 (AKT1 E17K) of 10 to 100 nM, an IC50 [1] of 100 to 2000 nM and an IC50 (AKT2) of 100 to 2000 nM. The IC50 (AKT1 WT) was 10 to 100 nM.
With CC1(NC(=O)c2ccc(O)c(C=O)c2)CCc2cc(-n3c(-c4cccnc4N)nc4ccc(-n5cccn5)nc43)ccc21 (centres unmarked) [Example 219, N-(5-(2-(2-aminopyridin-3-yl)-5-(1H-pyrazol-1-yl)-3H-imidazo[4,5-b]pyridin-3-yl)-1-methyl-2,3-dihydro-1H-inden-1-yl)-3-formyl-4-hydroxybenzamide] the IC50 (AKT1 E17K) was no less than 2000 nM, the IC50 [1] was no less than 2000 nM and the IC50 (AKT2) was 100 to 2000 nM. For the same compound, the IC50 (AKT1 WT) was 100 to 2000 nM.
Nc1ncccc1-c1nc2ccc(NC3CC3)nc2n1-c1ccc2c(c1)CC[C@@H]2NC(=O)c1ccc(O)c(C=O)c1 [Example 87, (S)—N-(5-(2-(2-aminopyridin-3-yl)-5-(cyclopropylamino)-3H-imidazo[4,5-b]pyridin-3-yl)-2,3-dihydro-1H-inden-1-yl)-3-formyl-4-hydroxybenzamide] was tested, and the IC50 (AKT1 E17K) was 10 to 100 nM, the IC50 [1] was 100 to 2000 nM and the IC50 (AKT2) was no less than 2000 nM. The IC50 (AKT1 WT) was 100 to 2000 nM.
